Consider 15 compounds from US9751837B2, “Kinase inhibitors” (RESPIVERT LIMITED, priority 2014, dated 2017).

In brackets after ≈: the same amount, converted by molar mass. Counter-ions that a name gives are not always drawn. Like-named read-outs stand apart in the source and are kept apart here.

The test system of one data set is Jurkat cells. In words: Cell cytotoxicity assay (r). Type of data set: cell-based, human. Conditions: 24 hours. The method, then: 1×10^5 Jurkat cells (immortalised human T lymphocytes) are added to the appropriate number of wells of a 96 well plate in 100 μL of media (RPMI supplemented with 10% foetal bovine serum). 1 μL of DMSO control (final concentration 1.0% v/v) or test compound (final concentration 20, 5 or 1 μg/mL) is added to the wells and incubated at 37° C., 5% CO2. After 24 hours, the plate is centrifuged at 1200 rpm for 3 minutes and the supernatant discarded. Cells are then resuspended in 150 μL (final concentration 7.5 μg/mL) of propidium iodide (PI) in PBS and incubated at 37° C., 5% CO2 for 15 minutes. After 15 minutes, cells are analysed by flow cytometry (BD accuri) using the FL3 window. The % viability is calculated as the % of cells that are PI negative in the test wells normalised to the DMSO control.

Data set [1] in a line: Solubility in fasted-state simulated colonic fluid (FaSSCoF) at pH 6.5. Type of data set: physicochemical. Conditions: 25 °C, pH 6.5, fassgf or other biorelevant, thermodynamic from solid. The method, then:
The solubilities of compounds of the invention in FaSSCoF at pH 6.5 are determined using a modification of a previously-reported procedure (Vertzoni, M., et al. Pharm. Res. 2010, 27, 2187-2196). In place of the bile salt extract employed in the original procedure (which extract is no longer available), the modified procedure uses a mixture of sodium taurochlorate (0.15 g), glycocholic acid (0.15 g), ursodeoxycholic acid (0.05 g), cholic acid (0.05 g), and glycodeoxycholic acid (0.05 g). These five bile acids are ground together with a mortar and pestle to produce a fine white powder that is incorporated into the FaSSCoF, as outlined below.
Tris(hydroxymethyl)aminomethane (Tris; 0.275 g) and maleic acid (0.44 g) are dissolved in water (35 mL) to give a solution whose pH is adjusted to 6.5 by treatment with 0.5M NaOH (ca. 12 mL). The solution is then made up to 50 mL with water. A portion of this Tris/maleate buffer solution (ca. 25 mL) is added to a 0.5 L round-bottomed flask, before being treated with 0.00565 g of the bile acid mixture described above. Solutions of phosphatidylcholine (0.0111 g) in DCM (0.15 mL) and palmitic acid (0.0013 g) in DCM (0.15 mL) are added, then the organic solvent is evaporated off under reduced pressure at 40° C. until a clear solution, with no perceptible DCM odour, is achieved. The volume of the evaporated solution is adjusted to 50 mL by addition of the remainder of Tris/maleate buffer, then BSA (0.115 g) is added, before being dissolved by gentle agitation.
Test compounds are suspended in the pH 6.5 FaSSCoF medium to give a maximum final concentration of 2-10 mg/mL. The suspensions are equilibrated at 25° C. for 24 h, before being filtered through a glass fibre C filter. The filtrates are then diluted as appropriate for injection and quantification by HPLC with reference to a standard. Different volumes of the standard, diluted and undiluted sample solutions are injected and the solubilities are calculated using the peak areas determined by integration of the peak found at the same retention time as the principal peak in the standard injection.

Setting [2] is: pH 6.5 FaSSCoF Solubility (mg/mL) Run 1.
[3] abbreviates: pH 6.5 FaSSCoF Solubility (mg/mL) Run 2.

For `COc1cc(Nc2cc(Oc3ccc(NC(=O)Nc4cc(C(C)(C)C)cc(NS(C)(=O)=O)c4OC)c4ccccc34)ccn2)ccc1S(=O)(=O)N(C)CCCN1CCN(C)CC1` [Example 25, 4-((4-((4-(3-(5-(tert-Butyl)-2-methoxy-3-(methylsulfonamido)phenyl)ureido)naphthalen-1-yl)oxy)pyridin-2-yl)amino)-2-methoxy-N-methyl-N-(3-(4-methylpiperazin-1-yl)propyl)benzenesulfonamide], the “% Viability at 20 μg/mL” value in the data set with Jurkat cells came out at 0.7%.

For the compound `COc1cc(Nc2nccc(Oc3ccc(NC(=O)Nc4cc(C(C)(C)C)cc(NS(C)(=O)=O)c4OC)c4ccccc34)n2)ccc1C(=O)NCCOCCOCCO` [17(by), 4-((4-((4-(3-(5-(tert-Butyl)-2-methoxy-3-(methylsulfonamido)phenyl)ureido)naphthalen-1-yl)oxy)pyrimidin-2-yl)amino)-N-(2-(2-(2-hydroxyethoxy)ethoxy)ethyl)-2-methoxybenzamide], the “% Viability at 20 μg/mL” value in the data set with Jurkat cells is on record as 1.6%. `CCN1CCN(CCNC(=O)c2ccc(Nc3cc(Oc4ccc(NC(=O)Nc5cc(C(C)(C)C)cc(NS(C)(=O)=O)c5OC)c5ccccc45)ccn3)cc2OC)CC1` [17(be), 4-((4-((4-(3-(5-(tert-Butyl)-2-methoxy-3-(methylsulfonamido)phenyl)ureido)naphthalen-1-yl)oxy)pyridin-2-yl)amino)-N-(2-(4-ethylpiperazin-1-yl)ethyl)-2-methoxybenzamide]: the “% Viability at 5 μg/mL” value in the data set on Jurkat cells (5 μg/mL) turned out to be 0.7%. In addition, the “% Viability at 20 μg/mL” value in the data set with Jurkat cells is reported as 0.5%. With `COc1cc(Nc2cc(Oc3ccc(NC(=O)Nc4cc(C(C)(C)C)cc(NS(C)(=O)=O)c4OC)c4ccccc34)ccn2)ccc1C(=O)NCCOCCOCCOP(=O)(O)O` [19 (ammonium salt), 2-(2-(2-(4-((4-((4-(3-(5-(tert-Butyl)-2-methoxy-3-(methylsulfonamido)phenyl)ureido)-naphthalen-1-yl)oxy)pyridin-2-yl)amino)-2-methoxybenzamido)ethoxy)ethoxy)ethyl dihydrogen phosphate], the solubility thermodynamic at 24 h was 0.946 mg/mL in data set [1] (setting [2]) and 0.881 mg/mL in data set [1] (setting [3]). As for `COc1cc(Nc2cc(Oc3ccc(NC(=O)Nc4cc(C(C)(C)C)cc(NS(C)(=O)=O)c4OC)c4ccccc34)ccn2)ccc1CP(C)(=O)O` [70 (sodium salt)], the solubility thermodynamic at 24 h in data set [1] (setting [2]) and in data set [1] (setting [3]) was more than 2.8 mg/mL throughout. `COc1cc(Nc2cc(Oc3ccc(NC(=O)Nc4cc(C(C)(C)C)cc(NS(C)(=O)=O)c4OC)c4ccccc34)ccn2)ccc1C(=O)NCCC(=O)O` [17(ay) (hydrochloride salt), 3-(4-((4-((4-(3-(5-(tert-Butyl)-2-methoxy-3-(methylsulfonamido)phenyl)ureido)-naphthalen-1-yl)oxy)pyridin-2-yl)amino)-2-methoxybenzamido)propanoic acid]: the solubility thermodynamic at 24 h in data set [1] (setting [2]) is 0.029 mg/mL; in data set [1] (setting [3]), 0.028 mg/mL.

For `COc1c(NC(=O)Nc2ccc(Oc3ccnc(Nc4ccc(C(=O)NCCN5CCOCC5)c(N(C)C)c4)c3)c3ccccc23)cc(C(C)(C)C)cc1NS(C)(=O)=O` [Example 21, 4-((4-((4-(3-(5-(tert-Butyl)-2-methoxy-3-(methylsulfonamido)phenyl)ureido)naphthalen-1-yl)oxy)pyridin-2-yl)amino)-2-(dimethylamino)-N-(2-morpholinoethyl)benzamide], the solubility thermodynamic at 24 h in data set [1] (setting [2]) and in data set [1] (setting [3]) was 0.01 mg/mL (≈ 12.1 µM) throughout. In the case of `COc1cc(Nc2cc(Oc3ccc(NC(=O)Nc4cc(C(C)(C)C)cc(NS(C)(=O)=O)c4OC)c4ccccc34)ccn2)ccc1C(=O)NC[C@@H]1O[C@H](CO)[C@@H](O)[C@H](O)[C@H]1O` [17(co), 4-((4-((4-(3-(5-(tert-Butyl)-2-methoxy-3-(methylsulfonamido)phenyl)ureido)naphthalen-1-yl)oxy)pyridin-2-yl)amino)-2-methoxy-N-(((2S,3R,4R,5S,6R)-3,4,5-trihydroxy-6-(hydroxymethyl)tetrahydro-2H-pyran-2-yl)methyl)benzamide], the solubility thermodynamic at 24 h was 0.005 mg/mL (≈ 5.71 µM) in data set [1] (FaSSCoF pH 6.5, 25° C., 24 h, Run 1, read-out: pH 6.5 FaSSCoF Solubility (mg/mL) Run 1) and 0.006 mg/mL (≈ 6.86 µM) in data set [1] (FaSSCoF pH 6.5, 25° C., 24 h, Run 2, read-out: pH 6.5 FaSSCoF Solubility (mg/mL) Run 2). As to `COc1c(NC(=O)Nc2ccc(Oc3ccnc(Nc4ccc(P(C)(=O)O)c(N(C)C)c4)c3)c3ccccc23)cc(C(C)(C)C)cc1NS(C)(=O)=O` [68 (sodium salt)], the solubility thermodynamic at 24 h in data set [1] (setting [2]) and in data set [1] (setting [3]) was 0.02 mg/mL in each case. `COc1cc(Nc2cc(Oc3ccc(NC(=O)Nc4cc(C(C)(C)C)cc(NS(C)(=O)=O)c4OC)c4ccccc34)ccn2)ccc1C(=O)NCCCC[C@H](N)C(=O)O` [17(bu) (dihydrochloride salt), (S)-2-Amino-6-(4-((4-((4-(3-(5-(tert-butyl)-2-methoxy-3-(methylsulfonamido)phenyl)-ureido)naphthalen-1-yl)oxy)pyridin-2-yl)amino)-2-methoxybenzamido)hexanoic acid]: the solubility thermodynamic at 24 h in data set [1] (setting [2]) and in data set [1] (setting [3]) was 0.006 mg/mL each time.

With `COc1cc(Nc2cc(Oc3ccc(NC(=O)Nc4cc(C(C)(C)C)cc(NS(C)(=O)=O)c4OC)c4ccccc34)ccn2)ccc1S(=O)(=O)CCOCCOCCO` [Example 40, N-(5-(tert-Butyl)-3-(3-(4-((2-((4-((2-(2-(2-hydroxyethoxy)ethoxy)ethyl)sulfonyl)-3-methoxyphenyl)amino)pyridin-4-yl)oxy)naphthalen-1-yl)ureido)-2-methoxyphenyl)-methanesulfonamide], the solubility thermodynamic at 24 h in data set [1] (setting [2]) and in data set [1] (setting [3]) was 0.005 mg/mL (≈ 5.87 µM) throughout. For `COc1cc(Nc2cc(Oc3ccc(NC(=O)Nc4cc(C(C)(C)C)cc(NS(C)(=O)=O)c4OC)c4ccccc34)ccn2)ccc1C(=O)NCCC(=O)N1C[C@H](O)[C@@H](O)[C@H](O)[C@H]1CO` [17(cf), 4-((4-((4-(3-(5-(tert-Butyl)-2-methoxy-3-(methylsulfonamido)phenyl)ureido)naphthalen-1-yl)oxy)pyridin-2-yl)amino)-2-methoxy-N-(3-oxo-3-((2R,3R,4R,5S)-3,4,5-trihydroxy-2-(hydroxymethyl)piperidin-1-yl)propyl)benzamide], the solubility thermodynamic at 24 h is 0.003 mg/mL (≈ 3.28 µM) in data set [1] (setting [2]) and 0.001 mg/mL (≈ 1.09 µM) in data set [1] (setting [3]). As for `COc1c(NC(=O)Nc2ccc(Oc3ccnc(Nc4ccc(C(=O)O)c(N(C)C)c4)c3)c3ccccc23)cc(C(C)(C)C)cc1NS(C)(=O)=O` [17(am), 4-[[4-[[4-[[5-tert-butyl-3-(methanesulfonamido)-2-methoxy-phenyl]carbamoylamino]-1-naphthyl]oxy]-2-pyridyl]amino]-2-(dimethylamino)benzoic acid], the solubility thermodynamic at 24 h in data set [1] (setting [2]) is 0.01 mg/mL (≈ 14 µM); in data set [1] (setting [3]), 0.012 mg/mL (≈ 16.8 µM).

For `COc1cc(Nc2cc(Oc3ccc(NC(=O)Nc4cc(C(C)(C)C)cc(NS(C)(=O)=O)c4OC)c4ccccc34)ccn2)cc(OC)c1C(=O)NCCOCCOCCOP(=O)(O)O` [47 (sodium salt), 2-(2-(2-(4-((4-((4-(3-(5-(tert-butyl)-2-methoxy-3-(methylsulfonamido)phenyl)ureido)-naphthalen-1-yl)oxy)pyridin-2-yl)amino)-2,6-dimethoxybenzamido)ethoxy)ethoxy)ethyl dihydrogen phosphate], the results for the solubility thermodynamic at 24 h in data set [1] (setting [2]) and in data set [1] (setting [3]) were more than 1.9 mg/mL and more than 2 mg/mL, respectively. Consider `COc1cc(Nc2cc(Oc3ccc(NC(=O)Nc4cc(C(C)(C)C)cc(NS(C)(=O)=O)c4OC)c4ccccc34)ccn2)ccc1C(=O)NCCO` [17(bn), 4-((4-((4-(3-(5-(tert-Butyl)-2-methoxy-3-(methylsulfonamido)phenyl)ureido)naphthalen-1-yl)oxy)pyridin-2-yl)amino)-N-(2-hydroxyethyl)-2-methoxybenzamide], for which the solubility thermodynamic at 24 h is 0.008 mg/mL (≈ 10.8 µM) in data set [1] (setting [2]) and 0.006 mg/mL (≈ 8.08 µM) in data set [1] (setting [3]).
